Data from ChEMBL document CHEMBL5505993, “Identification of a ferritinophagy inducer via sinomenine modification for the treatment of colorectal cancer” (Eur J Med Chem, 2024).
pIC50: −log10 of the molar value. Active and inactive are the calls of the source. The calls are words filed in the database; no cut-off is given here.

What was measured:
[1] = Toxicity in BALB/c mouse xenografted with human HCT-116 cells assessed as histopathological changes in kidney at 30 mg/kg,ip administrated daily for 14 days by hematoxylin and eosin staining based microscopic analysis; assay type: organism-based; conditions: in vivo, 336 h, time 14 day
HCT-116 [2] = test: Antitumor activity against human HCT-116 cells xenografted in BALB/c mouse assessed as reduction in tumor volume at 60 mg/kg,ip administrated daily for 14 days; assay type: functional, organism-based; conditions: time 14.0 day
HCT-116 [3] = test: Induction of ferroptosis in human HCT-116 cells assessed as increase in 4-HNE level in presence of deferoxamine mesylate at 20 uM by ELISA; assay type: functional, cell-based
HCT-116 [4] = test: Antitumor activity against human HCT-116 cells xenografted in BALB/c mouse assessed as reduction in tumor density at 30 mg/kg,ip administrated daily for 14 days by hematoxylin and eosin staining based microscopic analysis; assay type: functional, organism-based; conditions: time 14.0 day
[5] = Toxicity in BALB/c mouse xenografted with human HCT-116 cells assessed as change in body weight at 30 mg/kg,ip administrated daily for 14 days; assay type: organism-based; conditions: in vivo, 336 h, time 14 day
[6] = Toxicity in BALB/c mouse xenografted with human HCT-116 cells assessed as histopathological changes in spleen at 30 mg/kg,ip administrated daily for 14 days by hematoxylin and eosin staining based microscopic analysis; assay type: organism-based; conditions: in vivo, 336 h, time 14 day
HCT-116 [7] = test: Induction of ferroptosis in human HCT-116 cells assessed as increase in 4-HNE level in presence of Ferrostatin-1 at 20 uM by ELISA; assay type: functional, cell-based
HCT-116 [8] = test: Antitumor activity against human HCT-116 cells xenografted in BALB/c mouse assessed as increase in 4-HNE level in tumor at 60 mg/kg,ip administrated daily for 14 days by ELISA; assay type: functional, organism-based; conditions: time 14.0 day
HCT-116 [9] = test: Induction of ferroptosis in human HCT-116 cells assessed as effect on GSH level at 5 to 20 uM incubated for 12 hrs; assay type: functional, cell-based; conditions: dose 5-20 µM
HCT-116 [10] = test: Antitumor activity against human HCT-116 cells xenografted in BALB/c mouse assessed as tumor cell rupture at 60 mg/kg,ip administrated daily for 14 days by hematoxylin and eosin staining based microscopic analysis; assay type: functional, organism-based; conditions: time 14.0 day
[11] = Toxicity in BALB/c mouse xenografted with human HCT-116 cells assessed as histopathological changes in liver at 30 mg/kg,ip administrated daily for 14 days by hematoxylin and eosin staining based microscopic analysis; assay type: organism-based; conditions: in vivo, 336 h, time 14 day
HCT-116 [12] = test: Induction of ferroptosis in human HCT-116 cells assessed as increase in intracellular lipid ROS accumulation at 5 to 20 uM incubated for 12 hrs by C11 BODIPY probe based fluorescence microscopic analysis; assay type: functional, cell-based; conditions: dose 5-20 µM
HCT-116 [13] = test: Induction of ferroptosis in human HCT-116 cells assessed as increase in intracellular ferrous ion level at 20 uM incubated for 12 hrs in presence of ferroptosis inhibitor, Ferrostatin-1 by ferroOrange probe based flow cytometric analysis; assay type: functional, cell-based
HCT-116 [14] = test: Induction of autophagy in human HCT-116 cells transfected with mRFP-GFP-LC3B assessed as colocalization of lysosome with LC3B protein at 20 uM incubated for 12 hrs by Lyso tracker red staining based confocal fluorescence microscopic analysis; assay type: functional, cell-based
HCT-116 [15] = test: Antitumor activity against human HCT-116 cells xenografted in BALB/c mouse assessed as increase in LC3B expression at 60 mg/kg,ip administrated daily for 14 days by immunohistochemistry; assay type: functional, organism-based; conditions: time 14.0 day
HCT-116 [16] = test: Induction of ferritin autophagy in human HCT-116 cells assessed as upregulation of ratio of LC3B-II to LC3B-I protein expression at 5 to 20 uM incubated for 12 hrs by Western blotting analysis; assay type: functional, cell-based; conditions: dose 5-20 µM
HCT-116 [17] = test: Induction of ferroptosis in human HCT-116 cells assessed as increase in intracellular ferrous ion level incubated for 12 hrs by ferroOrange probe based flow cytometric analysis; assay type: functional, cell-based
HCT-116 [18] = test: Induction of ferroptosis in human HCT-116 cells assessed as increase in ferrous ion level in lysosomes at 20 uM incubated for 12 hrs by ferroOrange probe based confocal fluorescence microscopic analysis; assay type: functional, cell-based
HCT-116 [19] = test: Antitumor activity against human HCT-116 cells xenografted in BALB/c mouse assessed as reduction in tumor density at 60 mg/kg,ip administrated daily for 14 days by hematoxylin and eosin staining based microscopic analysis; assay type: functional, organism-based; conditions: time 14.0 day
HCT-116 [20] = test: Induction of autophagy in human HCT-116 cells assessed as increase in intracellular ferrous ion level at 20 uM incubated for 12 hrs in presence of autophagy inhibitor, Bafilomycin A1 by Lyso tracker green staining based confocal microscopic analysis; assay type: functional, cell-based
HCT-116 [21] = test: Antitumor activity against human HCT-116 cells xenografted in BALB/c mouse assessed as increase in LC3B expression at 30 mg/kg,ip administrated daily for 14 days by immunohistochemistry; assay type: functional, organism-based; conditions: time 14.0 day
[22] = Toxicity in BALB/c mouse xenografted with human HCT-116 cells assessed as histopathological changes in spleen at 60 mg/kg,ip administrated daily for 14 days by hematoxylin and eosin staining based microscopic analysis; assay type: organism-based; conditions: in vivo, 336 h, time 14 day
HCT-116 [23] = test: Antitumor activity against human HCT-116 cells xenografted in BALB/c mouse assessed as reduction in tumor growth at 60 mg/kg,ip administrated daily for 14 days; assay type: functional, organism-based; conditions: time 14.0 day
HCT-116 [24] = test: Induction of ferritin autophagy in human HCT-116 cells assessed as upregulation of FTH1 protein expression at 20 uM incubated for 12 hrs in presence of autophagy inhibitor, Bafilomycin A1 by Western blotting analysis; assay type: functional, cell-based
HCT-116 [25] = test: Antitumor activity against human HCT-116 cells xenografted in BALB/c mouse assessed as reduction in tumor weight at 30 mg/kg,ip administrated daily for 14 days; assay type: functional, organism-based; conditions: time 14.0 day
HCT-116 [26] = test: Induction of autophagy in human HCT-116 cells assessed as increase in 4-HNE level at 20 uM incubated for 12 hrs by ELISA; assay type: functional, cell-based
HCT-116 [27] = test: Induction of ferroptosis in human HCT-116 cells assessed as increase in intracellular ferrous ion level incubated for 12 hrs by ferroOrange probe based confocal fluorescence microscopic analysis; assay type: functional, cell-based
HCT-116 [28] = test: Induction of ferritin autophagy in human HCT-116 cells assessed as upregulation of FTH1 protein expression at 5 to 20 uM incubated for 12 hrs by Western blotting analysis; assay type: functional, cell-based; conditions: dose 5-20 µM
HCT-116 [29] = test: Induction of ferroptosis in human HCT-116 cells assessed as effect on p53 protein expression at 5 to 20 uM incubated for 12 hrs by Western blotting analysis; assay type: functional, cell-based; conditions: dose 5-20 µM
HCT-116 [30] = test: Antitumor activity against human HCT-116 cells xenografted in BALB/c mouse assessed as reduction in tumor growth at 30 mg/kg,ip administrated daily for 14 days; assay type: functional, organism-based; conditions: time 14.0 day
HCT-116 [31] = test: Antitumor activity against human HCT-116 cells xenografted in BALB/c mouse assessed as increase in 4-HNE level in tumor at 30 mg/kg,ip administrated daily for 14 days by ELISA; assay type: functional, organism-based; conditions: time 14.0 day
HCT-116 [32] = test: Induction of ferroptosis in human HCT-116 cells assessed as increase in ferrous ion level in lysosomes at 20 uM incubated for 12 hrs by Hoechst 33342 staining based confocal fluorescence microscopic analysis; assay type: functional, cell-based
HCT-116 [33] = test: Induction of ferroptosis in human HCT-116 cells assessed as effect on ACSL4 protein expression at 5 to 20 uM incubated for 12 hrs by Western blotting analysis; assay type: functional, cell-based; conditions: dose 5-20 µM
HT-29 = test: Cytotoxicity against human HT-29 cells assessed as inhibition of cell growth incubated for 48 hrs by CCK-8 assay; assay type: functional, cell-based; conditions: HT-29, 48 h

Structure (SMILES): C=C(Cl)C(=O)NCCCCCCCCCCCC(=O)Oc1c(OC)ccc2c1[C@@]13CCN(C)[C@@H](C2)[C@H]1C=C(OC)C(=O)C3
- Activity [1]: Non-Toxic
- Activity (HCT-116 [2]): Active
- Activity (HCT-116 [3]): inactive
- Activity (HCT-116 [4]): Active
- Activity [5]: Non-Toxic
- Activity [6]: Non-Toxic
- Activity (HCT-116 [7]): inactive
- Activity (HCT-116 [8]): Active
- Activity (HCT-116 [9]): inactive
- Activity (HCT-116 [10]): Active
- Activity [11]: Non-Toxic
- Activity (HCT-116 [12]): Active
- Activity (HCT-116 [13]): inactive
- Activity (HCT-116 [14]): Active
- Activity (HCT-116 [15]): Active
- Activity (HCT-116 [16]): Active
- Activity (HCT-116 [17]): Dose-Dependent Effect
- Activity (HCT-116 [18]): Active
- Activity (HCT-116 [19]): Active
- Activity (HCT-116 [20]): inactive
- Activity (HCT-116 [21]): Active
- Activity [22]: Non-Toxic
- Activity (HCT-116 [23]): Active
- Activity (HCT-116 [24]): inactive
- Activity (HCT-116 [25]): Active
- Activity (HCT-116 [26]): Active
- Activity (HCT-116 [27]): Dose-Dependent Effect
- Activity (HCT-116 [28]): Active
- Activity (HCT-116 [29]): inactive
- Activity (HCT-116 [30]): Active
- Activity (HCT-116 [31]): Active
- Activity (HCT-116 [32]): Active
- Activity (HCT-116 [33]): inactive
- pIC50 (HT-29): 5.17
